# Measurements as given in patent US10765638B2, “Particle formulation with polycation complex” (Yale University, priority 2017, dated 2020).
# Experiments:
# LC-1F = settings: read-out: IC50 for erlotinib (printed in the Afatinib column, marked &), cancerrxgene.org; cited from earlier work
# H1975 and H1975-OR cells = test: MTT proliferation assay; assay type: cell-based; settings: 1 μM Osimertinib
# Experimental: The H1975 and A549 cell lines were purchased from ATCC (Manassas, Va.), the PC9 cell line was a gift from Katie Politi, and the HCC-827 and HCC-827-GR lines were gifts from Jeff Engelman (MGH, Boston Mass.). Cell lines were cultured in RPMI 1640+10% FBS supplemented with penicillin and streptomycin (Gibco, Life Technologies, Grand Island, N.Y., US) in a humidified incubator with 5% CO2, and they were kept in culture no more than 4 months after resuscitation from the original stocks. No additional authentication was performed. Mycoplasma cell culture contamination was routinely checked and ruled out using the MycoAlert Mycoplasma Detection Kit (Lonza, Rockland, Me. USA). To generate a TKI resistant cell lines, either PC9 or H1975 cells were exposed to increasing concentrations of gefitinib or osimertinib, respectively. Gefitinib or Osimertinib concentrations were increased stepwise when cells resumed growth kinetics similar to the untreated parental cells over a dose range from 10 to 500 nM. Resistant cell cultures were obtained ˜8-12 weeks after initiation of drug exposure. To confirm the emergence of a therapeutic resistant, MTT assays were performed after allowing the cells to grow in drug-free conditions for at least 4 days.
# Growth rates were determined by CellTiter 96 NonRadioactive Cell Proliferation Assay (Promega; Madison, Wis., USA) according to the manufacturer's directions. Briefly, NSCLC cells (2×103) untreated or treated with 10 μM NGI-1, 100 nM Gefitinib, or 1 μM Osimertinib (Selleck Chemicals), were seeded in triplicate in 96-wells plates and grown in culture medium containing 10% serum. The media was changed with or without new inhibitor every 48 h. Cell numbers were estimated after 0, 3, and 5 days by adding MTT (3-(4,5-dimethylthiazol-2-yl)-2,5-diphenyltetrazolium bromide) reagent to the wells 4 h before taking the spectrophotometric reading (absorbance at 570 nm).
# H1975-OR xenografts = test: NSCLC xenograft tumor growth; assay type: in vivo, athymic Swiss nu/nu mice; settings: 5 mg/kg osimertinib oral daily; 5 mg/kg NGI-1-NP as printed in b391 (20 mg/kg elsewhere in the source); blank NPs 926±253 mm3
# Experimental: The effects of NGI-1 were evaluated in Six-to-eight-week old female athymic Swiss nu/nu mice bearing bilateral flank xenograft tumors. Five days after inoculation, mice were randomized to receive i.v. NGI-1 NPs (20 mg/kg) or blank NPs three times per week for a total of 8 doses. […] Tumor size was measured three times per week and volume was calculated according to the formula π/6×(length)×(width)^2.
# D54-ERLucT xenografts = test: Bioluminescent imaging of inhibition of N-linked glycosylation in xenografts; assay type: in vivo, mice; settings: 24 hours; tunicamycin 1 mg/kg, positive control
# Experimental: All experimental procedures were approved in accordance with IACUC and Yale University institutional guidelines for animal care and ethics and guidelines for the welfare and use of animals in cancer research (Workman et al., Br J Cancer, 102:1555-77 (2010)). NGI-1 delivery to glioma xenografts was evaluated using a bioluminescent imaging platform that detects inhibition of NLG (Contessa at al., Clin Cancer Res., 16:3205-14 (2010)). Ten days after subcutaneous injection of 1×10^7 gliomas cells, mice bearing palpable tumors were treated with control or NGI-1 NPs (20 mg/kg), or tunicamycin 1 mg/kg and imaged 5-30 minutes after delivery of i.p. luciferin (150 mg/kg). Signal intensity was quantified for a region of interest (ROI) encompassing each tumor and induction of bioluminscence was calculated by comparing peak bioluminescent activity from pre- and post-treatment imaging at 24 and 48 hours.
# [1] = Contessa et al., Clin Cancer Res. 2010; cited from earlier work
compound,measurement,setting,value
C#Cc1cccc(Nc2ncnc3cc(OCCOC)c(OCCOC)cc23)c1 [erlotinib],IC50,LC-1F,390 nM
C=CC(=O)Nc1cc(Nc2nccc(-c3cn(C)c4ccccc34)n2)c(OC)cc1N(C)CCN(C)C [osimertinib],sensitivity of proliferation to osimertinib,H1975 and H1975-OR cells; H1975-OR cells,resistant
same,sensitivity of proliferation to osimertinib,H1975 and H1975-OR cells; H1975 cells,sensitive
same,mean tumor volume at day 78,H1975-OR xenografts,584±296 mm^3
tunicamycin,induction of bioluminescence,D54-ERLucT xenografts,4.2 fold
same,toxicity,[1],significant toxicity both in vitro and in vivo
